From patent US4714711A, “6-hydroxy-2(2-hydroxy-4-methoxyphenyl)benzofuran derivatives to inhibit leukotriene biosynthesis” (Merck & Co., Inc., priority 1986, dated 1987) come the findings set out here.

For one assay, the system named is leukotriene C4. Put plainly: Inhibition of CXBG leukotriene production (A23187-stimulated, enzyme immunoassay). The assay is classed as cell-based, mice. As to conditions: Mus musculus; CXBG cells, 2×10^6 cells/ml, inhibitor 5 minutes at 37°, A23187 stimulation 10 minutes; read-out: IC50 (μg/ml) LTC4. The protocol:
(§1) Representative compounds of Formula I have been tested using the following assay to determine their mammalian leukotriene biosynthesis inhibiting activity and other relevant activities:
(§2) CXBG cells grown intraperitoneally in CB4 B6 /F1 /J mice were washed 5 times in Dulbeccos phosphate buffered saline without calcium or magnesium, suspended in medium 199 (Gibco) at 2×10^6 cells/ml, and incubated 15 minutes at 37°. Inhibitor solutions in methanol were incubated with the cells (10μl/600 μl cells), for 5 minutes at 37°, and the cells were stimulated with 60 μl A23187 (50 μg/ml) for 10 minutes at 37°. Aliquots were removed for measurement of leukotriene C4 or thromboxane B2 by enzyme immunoassay as previously reported (D. K. Miller, et al., J. Immunological Methods, 81, 169-185, 1985). The percentage inhibition was calculated by the following: [formula]

In another assay the test system is thromboxane B2. The experiment in a line: Inhibition of CXBG prostoglandin (thromboxane B2) production (A23187-stimulated, enzyme immunoassay). The assay is classed as cell-based, mice. As to conditions: Mus musculus; CXBG cells, 2×10^6 cells/ml, inhibitor 5 minutes at 37°, A23187 stimulation 10 minutes; read-out: IC50 (μg/ml) Tx B2. Here is the method:
as §1, §2

Structures are written as SMILES. Converted amounts (≈) assume the structure as drawn.

With `COc1ccc(-c2cc3cc(O)ccc3o2)c(O)c1` [5-hydroxy-2-(2-hydroxy-4-methoxyphenyl)benzofuran], the figures for the IC50 with leukotriene C4 and in the assay on thromboxane B2 were 0.75 µg/mL (≈ 2.93 µM) and 0.5 µg/mL (≈ 1.95 µM), respectively.

Regarding `COc1cc(O)ccc1-c1cc2ccc(O)cc2o1` [6-hydroxy-2-(2-methoxy-4-hydroxyphenyl)benzofuran], the figures for the IC50 in the assay on leukotriene C4 and in the assay on thromboxane B2 were 0.028 µg/mL (≈ 0.109 µM) and 1 µg/mL (≈ 3.9 µM), respectively.

Turning to `COc1ccc(-c2cc3ccc(O)cc3o2)c(O)c1` [6-hydroxy-2-(hydroxy-4-methoxyphenyl)benzofuran], the IC50 in the assay on leukotriene C4 amounted to 0.013 µg/mL (≈ 0.0507 µM); with thromboxane B2, 0.3 µg/mL (≈ 1.17 µM).
